# Assay results taken from patent US12673936B2, “Isoindolinone compounds, and uses thereof” (HANGZHOU GLUBIO PHARMACEUTICAL CO., LTD., priority 2021, dated 2026).
# Like-named read-outs stand apart in the source and are kept apart here.
# Key:
# [1] = target: HiBiT tagged CK1α (Homo sapiens, UniProt P48729+Q96SW2); experiment: CK1α degradation assay (HiBiT assay); type: cell-based; conditions: 20 hours; for Dmax: HT-1080, HT-1080 cells; for DC50: concentration at 50% CK1α degradation
# How it was run: (§1)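 HT-1080 cells stably expressing wild-type CRBN, GSPT1A(1-138)/G575N and HiBiT-tagged CK1α or GSPT1, ~10,000/well, treated with compound from 3.162×10^-4 μM to 10 μM (3.16-fold steps). HiBiT luminescence normalized to DMSO as percent of control.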
# [2] = target: HiBiT tagged GSPT1 (Homo sapiens, UniProt P15170+Q96SW2); experiment: GSPT1 degradation assay (HiBiT assay); type: cell-based; conditions: 20 hours, maximum GSPT1 degradation; for Dmax: HT-1080, HT-1080 cells
# Chain of HiBiT tagged GSPT1 (P15170 whole entry): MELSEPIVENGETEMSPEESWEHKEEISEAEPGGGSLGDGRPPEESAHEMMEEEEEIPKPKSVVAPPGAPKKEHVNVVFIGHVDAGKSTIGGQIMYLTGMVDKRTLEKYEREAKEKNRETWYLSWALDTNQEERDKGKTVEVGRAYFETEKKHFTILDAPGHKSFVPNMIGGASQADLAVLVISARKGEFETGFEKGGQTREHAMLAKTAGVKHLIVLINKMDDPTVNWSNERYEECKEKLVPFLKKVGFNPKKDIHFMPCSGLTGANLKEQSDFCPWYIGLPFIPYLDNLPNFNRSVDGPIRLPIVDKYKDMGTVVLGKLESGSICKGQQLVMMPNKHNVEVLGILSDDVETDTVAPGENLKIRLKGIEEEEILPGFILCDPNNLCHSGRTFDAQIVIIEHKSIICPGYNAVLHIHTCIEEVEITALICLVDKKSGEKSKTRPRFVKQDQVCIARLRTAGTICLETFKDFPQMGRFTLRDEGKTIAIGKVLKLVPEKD
# Chain of HiBiT tagged GSPT1 (Q96SW2 whole entry): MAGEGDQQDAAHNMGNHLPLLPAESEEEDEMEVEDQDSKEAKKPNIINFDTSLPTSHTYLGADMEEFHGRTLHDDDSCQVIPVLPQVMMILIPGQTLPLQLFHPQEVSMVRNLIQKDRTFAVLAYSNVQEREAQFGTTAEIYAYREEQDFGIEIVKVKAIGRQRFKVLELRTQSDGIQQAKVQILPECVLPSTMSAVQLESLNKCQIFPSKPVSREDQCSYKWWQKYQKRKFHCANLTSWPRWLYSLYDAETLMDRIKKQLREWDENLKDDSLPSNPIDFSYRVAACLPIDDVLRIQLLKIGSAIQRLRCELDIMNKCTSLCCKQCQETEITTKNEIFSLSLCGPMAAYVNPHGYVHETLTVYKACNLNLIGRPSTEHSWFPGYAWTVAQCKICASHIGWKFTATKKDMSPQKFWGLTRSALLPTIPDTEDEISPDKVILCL
# Chain of HiBiT tagged GSPT1 (Q16531 whole entry partner): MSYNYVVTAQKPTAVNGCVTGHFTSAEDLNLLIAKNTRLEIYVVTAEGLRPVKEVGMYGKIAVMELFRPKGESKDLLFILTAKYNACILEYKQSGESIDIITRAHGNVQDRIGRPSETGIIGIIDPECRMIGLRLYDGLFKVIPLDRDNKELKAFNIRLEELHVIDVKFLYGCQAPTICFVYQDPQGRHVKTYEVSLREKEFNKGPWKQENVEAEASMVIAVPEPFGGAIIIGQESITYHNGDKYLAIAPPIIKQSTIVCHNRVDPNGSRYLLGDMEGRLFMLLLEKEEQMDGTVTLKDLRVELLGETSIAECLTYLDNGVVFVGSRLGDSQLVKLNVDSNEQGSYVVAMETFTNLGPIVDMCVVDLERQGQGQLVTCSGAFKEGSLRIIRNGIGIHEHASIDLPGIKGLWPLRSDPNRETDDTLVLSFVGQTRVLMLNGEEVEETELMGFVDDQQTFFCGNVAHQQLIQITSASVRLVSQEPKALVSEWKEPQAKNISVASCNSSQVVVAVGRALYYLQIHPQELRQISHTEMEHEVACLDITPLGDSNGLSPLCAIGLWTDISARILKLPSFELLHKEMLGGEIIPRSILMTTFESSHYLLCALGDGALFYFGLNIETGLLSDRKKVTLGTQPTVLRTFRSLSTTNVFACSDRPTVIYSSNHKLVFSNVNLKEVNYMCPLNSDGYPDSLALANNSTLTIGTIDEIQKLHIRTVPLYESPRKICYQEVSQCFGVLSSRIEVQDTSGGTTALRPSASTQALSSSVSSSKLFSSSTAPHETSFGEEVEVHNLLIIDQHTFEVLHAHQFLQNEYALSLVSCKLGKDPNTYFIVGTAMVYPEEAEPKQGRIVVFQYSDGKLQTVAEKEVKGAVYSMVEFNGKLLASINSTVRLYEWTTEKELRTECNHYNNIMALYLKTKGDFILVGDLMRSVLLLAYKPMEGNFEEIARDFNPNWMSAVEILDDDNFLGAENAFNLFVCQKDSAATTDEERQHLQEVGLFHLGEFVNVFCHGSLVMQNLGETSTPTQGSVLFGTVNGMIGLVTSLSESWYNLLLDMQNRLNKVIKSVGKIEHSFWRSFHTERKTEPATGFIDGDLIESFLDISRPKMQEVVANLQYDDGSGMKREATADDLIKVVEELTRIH
# How it was run: as §1
# [3] = test system: MV4-11 cells; experiment: MV4-11 cell proliferation assay (CTG cell viability); type: cell-based; conditions: 120 hours, read-out: CTG cell viability assay_MV4-11: IC50
# Description: MV4-11 Cell Proliferation Assay
# The following is an example of an assay that can be used to determine the dose-dependent, anti-proliferative activity of CK1α degradating compounds in an AML cell line such as MV4-11 (ATCC Cat #CRL-9591).
# (§2) MV4-11 cells were seeded into a 384-well plate (Cat #3764, Corning) pre-spotted with DMSO or test compounds. Increasing concentrations of test compounds (ranging from 1×10^−3 μM to 10 μM at a 3.162-fold increment in a 10-point dose response assay; ranging from 3.162×10^−4 μM to 10 μM at a 3.162-fold increment in a 11-point dose response assay) or DMSO were dispensed into an empty 384-well plate using an a D300e digital dispenser (Tecan) or an Echo Acoustic Liquid Handler (Beckman Coulter). About 2,000 cells in 50 μL of culture media (IMDM plus 10% heat-inactivated FBS) were seeded per well. Assay plates were incubated at 37° C. with 5% CO2 for 120 hours. After that, 20 μL of the CellTiter-Glo Luminescent Cell Viability Assay Reagent (Cat #G7573, Promega) was added to each well and incubated at room temperature for 30 minutes. Luminescence was then measured with an EnVision plate reader (PerkinElmer) or a PHERAstar plate reader (BMG LABTECH). All cell growth inhibition curves were processed using Collaborative Drug Discovery Vault softwares (Burlingame, CA, www.collaborativedrug.com).
# Cell viability reads in compound-treated wells were normalized to that of DMSO control and expressed as Percent of Control (PoC, y). A four Parameter Logistic Model was used to determine the compound's EC50 and DC50, using the following equation:
# [formula] • A==lowest cell viability read normalized to DMSO control in response to compound treatment, as determined by curve fit • B=cell viability read in DMSO control • C=EC50 • D=Hill Slope • x=compound concentration • EC50=the concentration of compound when y=(B−A)/2 • IC50=the concentration of the compound when y=50% of DMSO control • y=cell viability read normalized to DMSO control Ymin=(A/B)*100% • Ymin represents the lowest cell viability % that can be achieved by the compound treatment in the assay.
# [4] = Pharmacokinetic study of single intravenous and oral administration in mouse; type: in vivo; conditions: for C0 / clearance / half-life / Vd / AUC(0-inf) / Cmax / Tmax: plasma; for Vd: read-out: Vss
# Description: The pharmacokinetic study of single intravenous and oral administration in mouse Sample collection and preparation: After intravenous injection or oral administration of test compounds, blood samples were collected and the blood collection time was recorded. After the blood sample was collected, it was immediately transferred into a labeled centrifuge tube containing K2-EDTA, followed by centrifugation and plasma collection. The plasma was then transferred into a pre-cooled centrifuge tube, quickly frozen on dry ice, and stored in an ultra-low temperature refrigerator at −70±10° C. until the LC-MS/MS analysis was performed.
# Pharmacokinetic data analysis: The pharmacokinetic software was used to process the plasma drug concentration data of the compound in a non-compartmental model. The peak concentration (Cmax), peak time (Tmax) and quantifiable end time can be directly obtained from the plasma concentration-time diagram. The log-linear trapezoidal method was used to calculate the following pharmacokinetic parameters: half-life (T1/2), apparent volume of distribution (Vdss) and clearance (Cl), and the area under the time-plasma concentration curve (AUC0-inf) from the 0 point to the end point.
# [5] = test system: KG-1a cells; experiment: KG-1a cell proliferation assay (CTG cell viability, counter screen for GSPT1-mediated cytotoxicity); type: cell-based; conditions: 120 hours, lowest cell viability, highest concentration 10 μM
# Text: (§3) KG-1a Cell Proliferation Assay
# (§4) On the other hand, most AML cell lines were reported to be sensitive to GSPT1 degradation induced by CC-885 or CC-90009 regardless of their p53 mutational status (Matyskiela et al., Nature (2016) 535:252-257; Surka et al., Blood (2021) 137 (5): 661-677). Because the subtle to moderate degradation of GSPT1 induced by CK1α degraders with mild activity towards GSPT1 might still result in toxicity in human, a counter screen using an AML cell line harboring p53 mutation such as KG-1a (ATCC Cat #CCL-246.1), was performed to determine the GSPT1-mediated cytotoxicity in vitro.
# as §2, with “The following is an example of an assay that can be used to determine the potential GSPT1-dependent cytotoxcity of test compounds that degrade GSPT1. KG-1a cells” for “MV4-11 cells”, “[…]” for “1×10^−3 μM”, “[…]” for “3.162×10^−4 μM”, “with” for “with an”, “EnVision Multimode Plate Reader” for “EnVision plate reader”, “www.collaborativedrug.com). Cell viability reads in compound-treated wells were normalized to that of DMSO control and expressed as Percent of Control (PoC, y). A four Parameter Logistic Model was used to determine the compound's EC50 and DC50, using the following equation: […]” for “www.collaborativedrug.com).”
# [6] = as above; type: cell-based; conditions: human, KG-1a cells (AML cell line harboring p53 mutation), lowest cell viability, highest concentration 10 μM, read-out: CTG cell viability assay KG1a: Ymin
# Text: as §3, §4
# as §2, with “The following is an example of an assay that can be used to determine the potential GSPT1-dependent cytotoxcity of test compounds that degrade GSPT1. KG-1a cells” for “MV4-11 cells”, “[…]” for “1×10^−3 μM”, “[…]” for “3.162×10^−4 μM”, “with” for “with an”, “EnVision Multimode Plate Reader” for “EnVision plate reader”, “www.collaborativedrug.com). Cell viability reads in compound-treated wells were normalized to that of DMSO control and expressed as Percent of Control (PoC, y). A four Parameter Logistic Model was used to determine the compound's EC50 and DC50, using the following equation: […]” for “www.collaborativedrug.com).”
# Chain of HiBiT tagged CK1α (P48729 whole entry): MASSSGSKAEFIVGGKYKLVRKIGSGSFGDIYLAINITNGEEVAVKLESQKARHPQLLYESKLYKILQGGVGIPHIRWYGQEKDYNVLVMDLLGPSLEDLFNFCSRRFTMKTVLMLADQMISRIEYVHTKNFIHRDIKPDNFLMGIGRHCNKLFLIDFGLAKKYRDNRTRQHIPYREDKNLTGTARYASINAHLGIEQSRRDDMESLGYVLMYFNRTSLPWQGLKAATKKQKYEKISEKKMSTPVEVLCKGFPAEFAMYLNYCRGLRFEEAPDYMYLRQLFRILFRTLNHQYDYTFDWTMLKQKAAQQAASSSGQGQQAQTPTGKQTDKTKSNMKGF
# Chain of HiBiT tagged CK1α (Q96SW2 whole entry): as the sequence (Q96SW2 whole entry) above
# Chain of HiBiT tagged CK1α (Q16531 whole entry partner): as the sequence (Q16531 whole entry partner) above
Structure (SMILES),Dmax ([1]; maximum CK1α degradation) [%],Dmax [2] [%],IC50 ([3]; Homo sapiens) [µM],"C0 ([4]; 2 mg/kg, IV) [µg/mL]","clearance ([4]; 2 mg/kg, IV) [L/h/kg]","half-life ([4]; 2 mg/kg, IV) [h]","Vd ([4]; 2 mg/kg, IV) [L/kg]","AUC(0-inf) ([4]; 10 mg/kg, PO) [µg·h/mL]","Cmax ([4]; 10 mg/kg, PO) [µg/mL]","Tmax ([4]; 10 mg/kg, PO) [h]","half-life ([4]; 10 mg/kg, PO) [h]",DC50 ([1]; HT-1080 cells) [µM],"HiBiT CK1α: Dmax ([1]; HT-1080 cells, maximum CK1α degradation) [%]",HiBiT GSPT1: Dmax ([2]; HT-1080 cells) [%],IC50 [3] [µM],"F ([4]; 10 mg/kg, PO) [%]",CTG cell viability assay KG1a: Ymin [5] [%],"viability at 120 h, 10 µM [6] [%]"
"O=C1CCC(N2Cc3cc(C(=O)N[C@H](c4ccc(F)cc4)C4CCC4)ccc3C2=O)C(=O)N1 (stereo in doubt) [Compound 7, N—((*S)-cyclobutyl(4-fluorophenyl)methyl)-2-(2,6-dioxopiperidin-3-yl)-1-oxoisoindoline-5-carboxamide]",,,,,,,,,,,,0.0817,71.8,28.6,0.112,,91.7,
"O=C1CCC(N2Cc3cc(C(=O)N[C@H](c4ccc(Cl)cc4)C4CC(F)(F)C4)ccc3C2=O)C(=O)N1 (stereo in doubt) [Compound 35, N-((*S)-(4-chlorophenyl)(3,3-difluorocyclobutyl)methyl)-2-(2,6-dioxopiperidin-3-yl)-1-oxoisoindoline-5-carboxamide]",67,14.8,0.198,,,,,,,,,0.0947,,,,,,92.1
"O=C1CCC(N2Cc3cc(C(=O)NC(c4ccc(F)cc4)C4CC(F)(F)C4)ccc3C2=O)C(=O)N1 (stereo not shown) [Compound 4, N-((3,3-difluorocyclobutyl)(4-fluorophenyl)methyl)-2-(2,6-dioxopiperidin-3-yl)-1-oxoisoindoline-5-carboxamide]",63.4,31.1,0.262,,,,,,,,,0.183,,,,,,90.9

# More lines, main results first:
Dmax ([1]; maximum CK1α degradation) [%],Dmax [2] [%],IC50 ([3]; Homo sapiens) [µM],"C0 ([4]; 2 mg/kg, IV) [µg/mL]","clearance ([4]; 2 mg/kg, IV) [L/h/kg]","half-life ([4]; 2 mg/kg, IV) [h]","Vd ([4]; 2 mg/kg, IV) [L/kg]","AUC(0-inf) ([4]; 10 mg/kg, PO) [µg·h/mL]","Cmax ([4]; 10 mg/kg, PO) [µg/mL]","Tmax ([4]; 10 mg/kg, PO) [h]","half-life ([4]; 10 mg/kg, PO) [h]",DC50 ([1]; HT-1080 cells) [µM],"HiBiT CK1α: Dmax ([1]; HT-1080 cells, maximum CK1α degradation) [%]",HiBiT GSPT1: Dmax ([2]; HT-1080 cells) [%],IC50 [3] [µM],"F ([4]; 10 mg/kg, PO) [%]",Structure (SMILES),CTG cell viability assay KG1a: Ymin [5] [%],"viability at 120 h, 10 µM [6] [%]"
66.3,16.2,0.06,6.8,0.63,1.34,0.85,13.3,6.08,0.67,2.03,,,,,,"O=C1CC[C@H](N2Cc3cc(C(=O)N[C@H](c4ccc(Cl)cn4)C4CCC4)ccc3C2=O)C(=O)N1 (single isomer, unassigned) [Compound 82]",,
70.5,24.9,0.115,1.86,1.38,2.84,3.2,5.87,1.57,0.83,2.72,0.0824,,,,76.8,"O=C1CCC(N2Cc3cc(C(=O)N[C@H](c4ccc(F)cc4F)C4CCC4)ccc3C2=O)C(=O)N1 (stereo in doubt) [Compound 41, N-((*S)-cyclobutyl(2,4-difluorophenyl)methyl)-2-(2,6-dioxopiperidin-3-yl)-1-oxoisoindoline-5-carboxamide]",,
63,18.2,0.142,4.91,0.471,3.62,0.87,14.9,5.69,0.5,2.12,0.193,,,,70.4,"O=C1CCC(N2Cc3cc(C(=O)N[C@H](c4ccc(F)cn4)C4(F)CCC4)ccc3C2=O)C(=O)N1 (stereo in doubt) [Compound 86, 2-(2,6-dioxopiperidin-3-yl)-N-((*R)-(1-fluorocyclobutyl)(5-fluoropyridin-2-yl)methyl)-1-oxoisoindoline-5-carboxamide]",,
